Measured values taken from PMC10573254, “Development of Novel Class of Phenylpyrazolo[3,4-d]pyrimidine-Based Analogs with Potent Anticancer Activity and Multitarget Enzyme Inhibition Supported by Docking Studies” (International Journal of Molecular Sciences, 2023).
Where two headings read alike, the source gives them in different places.

Legend:
VEGFR-2 = VEGFR-2 (Homo sapiens, UniProt P35968); assay: In vitro VEGFR2 enzyme inhibitory assay; type: biochemical
Protocol: (§1) Curve fitting was performed using GraphPad Prism.
(§2) (1 picture or pasted object on this page, not shown here)

EGFR^T790M = EGFR^T790M (Homo sapiens, UniProt P00533, T790M); assay: In vitro EGFR T790M kinase inhibitory assay
Protocol: (§5) The assays were conducted in Vacsera (Giza, Egypt). Curve fitting was performed using GraphPad Prism. Data are represented as means ± SD from three independent experiments.
Assay : EGFR-T490M kinase assay
Reader : Tecan-spark reader
Kit used : BPS bioscience EGFR assay kit.

HCT-116 = assay: MTT cytotoxicity assay, HCT-116; type: cell-based; conditions: Homo sapiens
Protocol: (§6) The cytotoxic activity was assessed using the 3-(4,5-dimethylthiazol-2-yl)-2,5-diphenyl tetrazolium bromide (MTT) colorimetric assay, as reported previously [62, 63]. […] Briefly, the designated cell lines were cultured at a concentration of 5 × 10^4 cell/well in 96-well plates. The cells were incubated for 24 h under optimum conditions. Following this, the designated molecules were introduced (in serial dilutions from 0 to 50 μg/mL), and the cells were incubated for an additional 24 h. Following this, the media were withdrawn, and 100 μL of fresh medium was added. Then, 10 µL of the 12 mM MTT stock solution was administered to each well. The plates were then incubated for 4 h. Then, the cells were exposed to different compounds at the desired concentrations (0.01, 0.1, 1, 10, and 100 µM) or to 1% dimethyl sulfoxide (DMSO) for 48 and 72 h. […] Then, the optical density was measured at 590 nm with the microplate reader (Sunrise, TECAN, Inc., Morrisville, NC, USA).

EGFR^WT = EGFR^WT (Homo sapiens, UniProt P00533); assay: In vitro EGFR enzyme inhibitory assay; type: biochemical
EGFR^WT, sequence (P00533 25-1210): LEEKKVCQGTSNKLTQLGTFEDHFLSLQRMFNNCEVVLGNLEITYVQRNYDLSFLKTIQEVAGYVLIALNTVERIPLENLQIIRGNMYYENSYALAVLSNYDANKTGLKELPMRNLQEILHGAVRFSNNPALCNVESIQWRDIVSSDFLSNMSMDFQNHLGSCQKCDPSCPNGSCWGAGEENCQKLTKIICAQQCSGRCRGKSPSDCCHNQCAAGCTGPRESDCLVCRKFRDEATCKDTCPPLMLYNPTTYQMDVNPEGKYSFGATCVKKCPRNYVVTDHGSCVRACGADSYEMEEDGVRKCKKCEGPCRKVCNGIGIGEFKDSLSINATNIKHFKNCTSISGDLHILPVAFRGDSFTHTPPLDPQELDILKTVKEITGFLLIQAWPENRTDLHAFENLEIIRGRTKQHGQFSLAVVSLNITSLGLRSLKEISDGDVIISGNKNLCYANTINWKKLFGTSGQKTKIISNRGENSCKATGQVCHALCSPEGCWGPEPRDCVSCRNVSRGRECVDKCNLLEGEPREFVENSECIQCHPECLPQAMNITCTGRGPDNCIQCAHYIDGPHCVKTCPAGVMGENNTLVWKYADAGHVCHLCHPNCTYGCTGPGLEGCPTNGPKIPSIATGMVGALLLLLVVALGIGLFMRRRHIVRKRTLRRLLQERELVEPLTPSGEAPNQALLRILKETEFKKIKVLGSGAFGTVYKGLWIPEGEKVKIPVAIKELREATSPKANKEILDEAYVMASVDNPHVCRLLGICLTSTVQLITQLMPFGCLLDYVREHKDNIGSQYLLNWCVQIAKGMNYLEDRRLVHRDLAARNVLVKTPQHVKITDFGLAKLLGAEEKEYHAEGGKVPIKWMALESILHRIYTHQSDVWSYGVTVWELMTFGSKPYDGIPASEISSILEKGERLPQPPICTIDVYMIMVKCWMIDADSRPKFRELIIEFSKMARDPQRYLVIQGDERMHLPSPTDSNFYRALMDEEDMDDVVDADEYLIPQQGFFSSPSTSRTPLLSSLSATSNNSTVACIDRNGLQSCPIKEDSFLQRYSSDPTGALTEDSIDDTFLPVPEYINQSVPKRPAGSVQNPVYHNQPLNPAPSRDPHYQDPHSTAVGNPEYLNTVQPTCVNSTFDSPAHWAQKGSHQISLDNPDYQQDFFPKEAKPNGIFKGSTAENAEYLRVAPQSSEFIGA
Protocol: as §5
Reader : Tecan Spark Reader

WI-38 = assay: MTT assay on normal cell line WI-38; type: cell-based; conditions: normal human diploid fibroblasts
Protocol: (§3) According to our design, the tested compounds are classified into four categories based on the length and the chemotype of the spacer (Figure 3). In the first category, we used monosubstituted hydrazone linker. […] The second category is represented by […] hydrazone linker.
(§4) The cytotoxic activity was assessed using the 3-(4,5-dimethylthiazol-2-yl)-2,5-diphenyl tetrazolium bromide (MTT) colorimetric assay, as reported previously. Doxorubicin was used as a reference standard, and DMSO was used as a negative control. Briefly, the designated cell lines were cultured at a concentration of 5 × 10^4 cell/well in 96-well plates. The cells were incubated for 24 h under optimum conditions. Following this, the designated molecules were introduced (in serial dilutions from 0 to 50 μg/mL), and the cells were incubated for an additional 24 h. Following this, the media were withdrawn, and 100 μL of fresh medium was added. Then, 10 µL of the 12 mM MTT stock solution was administered to each well. The plates were then incubated for 4 h. […] An 85-μL aliquot of the media was removed from the wells, and 50 µL of DMSO was added to each well and mixed thoroughly with the pipette and incubated at 37 °C for 10 min. Then, the optical density was measured at 590 nm with the microplate reader (Sunrise, TECAN, Inc., Morrisville, NC, USA).

[1] = tested on: MCF-7, HCT116, and HePG-2; assay: MTT assay against three malignant cell lines (summary); type: cell-based; conditions: Homo sapiens, read-out: IC50 cytotoxicity (range over cell lines)
Protocol: as §3, §4

MCF-7 = assay: MTT cytotoxicity assay, MCF-7; type: cell-based; conditions: Homo sapiens, MCF7
Protocol: as §6

Topo-II = target: T1, Topo-II (Homo sapiens, UniProt Q02880); assay: In vitro Topo II inhibitory assay; type: biochemical
T1 construct: purchased
T1 sequence (Q02880 2-1626): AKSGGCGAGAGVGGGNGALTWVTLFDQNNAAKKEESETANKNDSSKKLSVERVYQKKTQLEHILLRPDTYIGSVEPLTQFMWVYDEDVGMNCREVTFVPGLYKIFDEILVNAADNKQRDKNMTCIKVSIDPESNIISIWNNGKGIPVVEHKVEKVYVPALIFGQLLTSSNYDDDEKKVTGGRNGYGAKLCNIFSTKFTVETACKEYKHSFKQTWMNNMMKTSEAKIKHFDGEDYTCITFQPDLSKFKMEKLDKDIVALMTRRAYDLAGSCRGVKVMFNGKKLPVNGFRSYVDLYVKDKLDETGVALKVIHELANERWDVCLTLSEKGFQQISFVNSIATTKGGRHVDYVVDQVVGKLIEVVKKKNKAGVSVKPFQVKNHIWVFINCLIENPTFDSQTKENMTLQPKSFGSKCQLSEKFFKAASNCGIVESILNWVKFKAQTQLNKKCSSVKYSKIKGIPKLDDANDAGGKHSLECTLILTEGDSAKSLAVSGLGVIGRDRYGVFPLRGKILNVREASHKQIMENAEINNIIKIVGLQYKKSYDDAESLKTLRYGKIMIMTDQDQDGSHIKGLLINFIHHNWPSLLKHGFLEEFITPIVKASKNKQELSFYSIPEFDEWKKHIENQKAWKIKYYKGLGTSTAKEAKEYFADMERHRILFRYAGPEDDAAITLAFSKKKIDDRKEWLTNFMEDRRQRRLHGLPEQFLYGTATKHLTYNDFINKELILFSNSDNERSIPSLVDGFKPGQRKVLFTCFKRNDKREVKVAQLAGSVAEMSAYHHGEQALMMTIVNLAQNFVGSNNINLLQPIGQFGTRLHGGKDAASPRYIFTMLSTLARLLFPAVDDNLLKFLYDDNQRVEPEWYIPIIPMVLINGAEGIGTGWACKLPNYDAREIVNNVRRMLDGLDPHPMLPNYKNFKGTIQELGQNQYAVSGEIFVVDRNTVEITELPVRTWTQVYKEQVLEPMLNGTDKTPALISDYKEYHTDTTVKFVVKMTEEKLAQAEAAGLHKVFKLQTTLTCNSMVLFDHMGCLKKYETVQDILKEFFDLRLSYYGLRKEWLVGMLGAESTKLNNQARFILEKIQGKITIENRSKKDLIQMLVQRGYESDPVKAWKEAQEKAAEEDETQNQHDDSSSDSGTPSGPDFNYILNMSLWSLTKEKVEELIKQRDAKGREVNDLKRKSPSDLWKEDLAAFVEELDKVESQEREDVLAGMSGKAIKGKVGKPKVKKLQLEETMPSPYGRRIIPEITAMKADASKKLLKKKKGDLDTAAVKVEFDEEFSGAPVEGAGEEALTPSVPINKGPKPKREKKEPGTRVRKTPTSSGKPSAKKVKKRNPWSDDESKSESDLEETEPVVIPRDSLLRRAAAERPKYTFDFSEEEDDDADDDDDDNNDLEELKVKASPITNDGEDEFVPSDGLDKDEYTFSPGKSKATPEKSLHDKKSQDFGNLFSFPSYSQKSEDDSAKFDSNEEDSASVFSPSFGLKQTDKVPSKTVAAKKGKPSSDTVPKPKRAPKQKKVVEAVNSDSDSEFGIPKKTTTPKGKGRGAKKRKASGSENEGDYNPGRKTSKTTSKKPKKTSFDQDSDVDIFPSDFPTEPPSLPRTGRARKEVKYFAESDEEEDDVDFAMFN
Protocol: as §1, §2

HePG-2 = assay: MTT cytotoxicity assay, HePG-2; type: cell-based; conditions: Homo sapiens, HepG2
Protocol: as §4

VEGFR-2, sequence (P35968 20-1356): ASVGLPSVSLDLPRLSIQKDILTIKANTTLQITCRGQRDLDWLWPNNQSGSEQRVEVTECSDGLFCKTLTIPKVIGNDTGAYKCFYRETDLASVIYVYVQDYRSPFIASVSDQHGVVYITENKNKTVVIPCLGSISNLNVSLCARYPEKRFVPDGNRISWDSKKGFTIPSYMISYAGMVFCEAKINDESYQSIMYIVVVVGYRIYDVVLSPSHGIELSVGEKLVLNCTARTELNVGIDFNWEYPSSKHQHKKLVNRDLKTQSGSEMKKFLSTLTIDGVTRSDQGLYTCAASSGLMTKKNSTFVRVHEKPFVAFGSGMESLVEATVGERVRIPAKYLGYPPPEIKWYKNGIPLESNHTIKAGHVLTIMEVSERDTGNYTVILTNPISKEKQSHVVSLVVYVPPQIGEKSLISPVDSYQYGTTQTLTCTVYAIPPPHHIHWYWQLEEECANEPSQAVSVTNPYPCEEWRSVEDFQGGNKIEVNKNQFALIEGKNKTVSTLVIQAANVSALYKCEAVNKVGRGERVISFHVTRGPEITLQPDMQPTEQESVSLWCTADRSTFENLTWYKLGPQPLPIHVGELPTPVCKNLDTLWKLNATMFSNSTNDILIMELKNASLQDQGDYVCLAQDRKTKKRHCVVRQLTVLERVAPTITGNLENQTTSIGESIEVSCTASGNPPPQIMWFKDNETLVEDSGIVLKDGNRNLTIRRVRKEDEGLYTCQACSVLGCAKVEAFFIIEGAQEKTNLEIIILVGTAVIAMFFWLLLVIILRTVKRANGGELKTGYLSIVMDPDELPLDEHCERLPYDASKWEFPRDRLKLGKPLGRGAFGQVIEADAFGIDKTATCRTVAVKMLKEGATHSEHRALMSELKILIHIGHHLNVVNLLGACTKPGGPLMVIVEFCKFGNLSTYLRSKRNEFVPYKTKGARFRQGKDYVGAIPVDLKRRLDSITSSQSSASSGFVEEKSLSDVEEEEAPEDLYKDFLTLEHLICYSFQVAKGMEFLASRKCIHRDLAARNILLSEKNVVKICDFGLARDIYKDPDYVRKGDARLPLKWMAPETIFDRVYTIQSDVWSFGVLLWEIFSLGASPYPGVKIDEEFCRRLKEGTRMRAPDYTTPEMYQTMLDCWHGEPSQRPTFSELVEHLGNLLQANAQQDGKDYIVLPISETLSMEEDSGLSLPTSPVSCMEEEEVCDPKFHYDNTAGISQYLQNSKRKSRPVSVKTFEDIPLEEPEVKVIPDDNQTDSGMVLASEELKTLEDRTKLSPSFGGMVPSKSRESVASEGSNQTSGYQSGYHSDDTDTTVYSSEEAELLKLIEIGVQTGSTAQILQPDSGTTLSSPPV

With Cc1nc(NN=Cc2ccc(O)cc2)c2cnn(-c3ccccc3)c2n1 [Compound 5b, 4-((2-(6-Methyl-1-phenyl-1H-pyrazolo[3,4-d]pyrimidin-4-yl)hydrazineylidene)methyl)phenol] the “VEGFR2 %inh at conc 0.01” value (VEGFR-2; conc 0.01, unit not given) was 13%, the “VEGFR2 %inh at conc 0.1” value (VEGFR-2; conc 0.1, unit not given) was 25% and the “VEGFR2 %inh at conc 1” value (VEGFR-2; conc 1, unit not given) was 50%. The “VEGFR2 %inh at conc 10” value (VEGFR-2; conc 10, unit not given) was 70%, the “target selectivity index EGFR over VGFR-2” value (VEGFR-2; fold, EGFR^WT versus VGFR-2) was 20 and the IC50 (VEGFR-2; read-out: IC50 VGFR2) was 15.7 ± 0.32 µM. The IC50 (VEGFR-2; supplement lab report, read-out: VEGFR2 IC50 (lab report) (converted)) was 15.7 µM, the IC50 (EGFR^T790M) was 1.93 ± 0.08 µM and the “EGFR T790M %inh at conc 0.01” value (EGFR^T790M; conc 0.01 (conc.ng/ml)) was 37%. For the same compound, the “EGFR T790M %inh at conc 0.1” value (EGFR^T790M; conc 0.1 (conc.ng/ml)) was 54%, the “EGFR T790M %inh at conc 1” value (EGFR^T790M; conc 1 (conc.ng/ml)) was 77% and the “EGFR T790M %inh at conc 10” value (EGFR^T790M; conc 10 (conc.ng/ml)) was 87%. It also gave an IC50 (HCT-116; HCT-116, read-out: IC50 HCT-116, MTT, colon cancer cells) of 5.65 ± 0.3 µM, an IC50 (HCT-116; HCT-116, 24 h incubation, read-out: IC50 HCT116 24 h) of 5.65 ± 0.3 µM and an IC50 (HCT-116; HCT-116, 48 h incubation, read-out: IC50 HCT116 48 h) of 9.82 ± 0.9 µM. For the same compound, the IC50 (HCT-116; HCT-116, 72 h incubation, read-out: IC50 HCT116 72 h) was 4.09 ± 0.3 µM, the “EGFR %inh at conc 0.01” value (EGFR^WT; conc 0.01, unit not given) was 28% and the “EGFR %inh at conc 0.1” value (EGFR^WT; conc 0.1, unit not given) was 46%. For the same compound, the “EGFR %inh at conc 1” value (EGFR^WT; conc 1, unit not given) was 71%, the “EGFR %inh at conc 10” value (EGFR^WT; conc 10, unit not given) was 87% and the IC50 (EGFR^WT; supplement lab report, read-out: EGFR IC50 (lab report) (converted)) was 0.366 µM. The IC50 (WI-38; Homo sapiens, WI-38, MTT) was over 35 µM, the IC50 (WI-38; MTT) was 35 ± 0.3 µM and the IC50 [1] was 3 to 10 µM. The IC50 (MCF-7; 24 h incubation, read-out: IC50 MCF-7 24 h) was 10.5 ± 0.7 µM, the IC50 (MCF-7; 48 h incubation, read-out: IC50 MCF-7 48 h) was 9.82 ± 0.9 µM and the IC50 (MCF-7; 72 h incubation, read-out: IC50 MCF-7 72 h) was 5.16 ± 0.4 µM. The IC50 (MCF-7; MTT, breast cancer cells, read-out: IC50 MCF-7) was 10.5 ± 0.7 µM, the “TOPO IiB %inh at conc 0.1” value (Topo-II; conc 0.1, unit not given) was 6.7% and the “TOPO IiB %inh at conc 1” value (Topo-II; conc 1, unit not given) was 12%. The “TOPO IiB %inh at conc 10” value (Topo-II; conc 10, unit not given) was 31%, the “TOPO IiB %inh at conc 100” value (Topo-II; conc 100, unit not given) was 66% and the IC50 (Topo-II; read-out: IC50 Topo-II) was 108 ± 2.2 µM. The IC50 (Topo-II; supplement lab report, Human DNA Topoisomerase 2B Kit, read-out: TOP2a IC50 (lab report) (converted)) was 108 µM, the melting point was 162 to 164 °C and the IC50 (HePG-2; 24 h incubation, read-out: IC50 HePG-2 24 h) was 9.12 ± 0.7 µM. For the same compound, the IC50 (HePG-2; 48 h incubation, read-out: IC50 HePG-2 48 h) was 7.6 ± 0.7 µM, the IC50 (HePG-2; 72 h incubation, read-out: IC50 HePG-2 72 h) was 5.16 ± 0.4 µM and the IC50 (HePG-2; MTT, liver cancer cells, read-out: IC50 HePG-2) was 9.12 ± 0.7 µM.
